Some results are limits rather than exact numbers.

Experimental findings from ChEMBL document CHEMBL5291721, “A preclinical secondary pharmacology resource illuminates target-adverse drug reaction associations of marketed drugs” (Nat Commun, 2023) are described below.

One experiment deals with Histamine H3 receptor (Homo sapiens, UniProt Q9Y5N1).
For experiment [1], the target named is Voltage-dependent L-type calcium channel subunit alpha-1C (Homo sapiens, UniProt Q13936). It counts as functional, cell-based.
The target in experiment [2] is T1, Alpha-2A adrenergic receptor (Homo sapiens, UniProt P08913).
T1 sequence (P08913 whole entry): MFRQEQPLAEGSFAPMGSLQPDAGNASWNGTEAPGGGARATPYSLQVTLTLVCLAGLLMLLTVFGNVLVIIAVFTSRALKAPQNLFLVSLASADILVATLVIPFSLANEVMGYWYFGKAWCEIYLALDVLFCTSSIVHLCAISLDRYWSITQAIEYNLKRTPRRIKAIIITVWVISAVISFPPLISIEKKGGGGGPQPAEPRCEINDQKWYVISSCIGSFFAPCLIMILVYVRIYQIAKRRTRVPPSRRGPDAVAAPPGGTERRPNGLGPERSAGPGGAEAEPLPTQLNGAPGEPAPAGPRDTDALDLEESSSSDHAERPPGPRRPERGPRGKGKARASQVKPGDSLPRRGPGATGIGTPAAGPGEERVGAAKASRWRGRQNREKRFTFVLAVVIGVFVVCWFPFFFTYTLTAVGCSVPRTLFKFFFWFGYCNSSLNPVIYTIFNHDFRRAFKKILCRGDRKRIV

The next experiment addresses Acetylcholinesterase (Homo sapiens, UniProt P22303). The class given is functional.
The target in the next experiment is T2, Androgen receptor (Homo sapiens, UniProt P10275).
T2 sequence (P10275 whole entry): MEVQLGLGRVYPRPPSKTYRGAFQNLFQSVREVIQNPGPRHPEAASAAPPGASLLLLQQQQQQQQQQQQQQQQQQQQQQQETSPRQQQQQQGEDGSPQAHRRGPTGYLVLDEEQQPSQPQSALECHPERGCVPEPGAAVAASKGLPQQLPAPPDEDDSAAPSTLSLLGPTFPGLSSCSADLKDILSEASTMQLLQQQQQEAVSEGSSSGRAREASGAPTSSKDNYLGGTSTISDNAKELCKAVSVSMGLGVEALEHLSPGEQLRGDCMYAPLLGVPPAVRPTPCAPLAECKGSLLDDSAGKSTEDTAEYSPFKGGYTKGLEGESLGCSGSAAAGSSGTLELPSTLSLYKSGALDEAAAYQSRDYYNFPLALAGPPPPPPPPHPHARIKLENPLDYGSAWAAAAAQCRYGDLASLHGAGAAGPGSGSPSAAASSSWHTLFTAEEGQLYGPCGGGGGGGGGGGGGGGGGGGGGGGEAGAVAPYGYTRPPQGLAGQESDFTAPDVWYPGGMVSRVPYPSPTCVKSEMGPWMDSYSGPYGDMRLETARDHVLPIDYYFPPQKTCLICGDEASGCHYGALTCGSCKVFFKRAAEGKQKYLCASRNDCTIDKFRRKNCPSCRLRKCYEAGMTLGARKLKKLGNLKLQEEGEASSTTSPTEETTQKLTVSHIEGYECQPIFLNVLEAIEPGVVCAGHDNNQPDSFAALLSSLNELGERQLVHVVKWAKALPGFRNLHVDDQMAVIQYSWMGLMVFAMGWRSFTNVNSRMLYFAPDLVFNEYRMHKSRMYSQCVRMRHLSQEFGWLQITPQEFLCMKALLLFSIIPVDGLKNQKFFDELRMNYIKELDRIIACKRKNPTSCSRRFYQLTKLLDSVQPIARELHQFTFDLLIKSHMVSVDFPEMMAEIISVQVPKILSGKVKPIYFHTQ

The target of experiment [3] is T3, Alpha-1A adrenergic receptor (Homo sapiens, UniProt P35348).
T3 sequence (P35348 whole entry): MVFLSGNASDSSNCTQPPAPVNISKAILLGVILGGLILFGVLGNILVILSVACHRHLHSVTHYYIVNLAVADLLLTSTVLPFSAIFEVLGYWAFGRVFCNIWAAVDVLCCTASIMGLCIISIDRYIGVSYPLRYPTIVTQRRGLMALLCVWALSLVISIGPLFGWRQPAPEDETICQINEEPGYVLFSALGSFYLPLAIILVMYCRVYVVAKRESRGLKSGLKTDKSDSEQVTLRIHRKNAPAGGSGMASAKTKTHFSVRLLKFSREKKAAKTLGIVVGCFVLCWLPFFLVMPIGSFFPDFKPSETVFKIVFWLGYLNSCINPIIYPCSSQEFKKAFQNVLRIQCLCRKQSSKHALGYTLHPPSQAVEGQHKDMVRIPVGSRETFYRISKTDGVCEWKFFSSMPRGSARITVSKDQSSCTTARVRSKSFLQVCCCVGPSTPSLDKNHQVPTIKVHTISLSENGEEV
The class given is functional, cell-based.

Experiment [4] addresses T3, Alpha-1A adrenergic receptor. The class given is functional, cell-based. The source holds these as a separate data set.
Experiment [5] concerns the target T4, Amine oxidase [flavin-containing] A (Homo sapiens, UniProt P21397).
T4 sequence (P21397 whole entry): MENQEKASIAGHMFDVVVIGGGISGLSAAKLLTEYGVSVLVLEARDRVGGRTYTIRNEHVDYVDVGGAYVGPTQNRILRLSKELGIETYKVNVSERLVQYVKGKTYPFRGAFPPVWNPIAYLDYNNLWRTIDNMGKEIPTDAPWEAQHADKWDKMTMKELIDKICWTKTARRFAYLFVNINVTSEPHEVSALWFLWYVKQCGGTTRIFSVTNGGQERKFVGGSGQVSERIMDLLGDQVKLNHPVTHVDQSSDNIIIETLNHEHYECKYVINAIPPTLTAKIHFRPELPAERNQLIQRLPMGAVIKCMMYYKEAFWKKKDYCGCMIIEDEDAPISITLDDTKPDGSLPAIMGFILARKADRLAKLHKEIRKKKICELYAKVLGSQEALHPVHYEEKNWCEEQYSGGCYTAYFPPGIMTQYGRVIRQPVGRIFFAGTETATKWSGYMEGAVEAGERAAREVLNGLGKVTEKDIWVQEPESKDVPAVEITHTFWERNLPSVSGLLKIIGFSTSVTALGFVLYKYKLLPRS
It counts as functional.

For another experiment, the target named is T5, Thromboxane A2 receptor (Homo sapiens, UniProt P21731).
T5 sequence (P21731 whole entry): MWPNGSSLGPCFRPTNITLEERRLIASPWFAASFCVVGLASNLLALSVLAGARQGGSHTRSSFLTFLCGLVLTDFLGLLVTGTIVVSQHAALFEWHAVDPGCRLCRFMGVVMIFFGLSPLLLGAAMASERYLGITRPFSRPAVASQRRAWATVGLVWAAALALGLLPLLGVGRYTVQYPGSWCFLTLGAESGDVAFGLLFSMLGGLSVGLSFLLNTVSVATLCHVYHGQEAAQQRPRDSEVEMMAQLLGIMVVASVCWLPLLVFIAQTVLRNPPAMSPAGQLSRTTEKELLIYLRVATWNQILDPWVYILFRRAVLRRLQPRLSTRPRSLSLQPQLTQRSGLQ
The class given is functional, cell-based.

The target in experiment [6] is Glutamate receptor ionotropic, NMDA 1 (Rattus norvegicus, UniProt P35439).
The target of experiment [7] is Beta-2 adrenergic receptor (Homo sapiens, UniProt P07550).
In experiment [8] the target is Beta-1 adrenergic receptor (Homo sapiens, UniProt P08588). The class given is functional.
Beta-1 adrenergic receptor, sequence (P08588 whole entry): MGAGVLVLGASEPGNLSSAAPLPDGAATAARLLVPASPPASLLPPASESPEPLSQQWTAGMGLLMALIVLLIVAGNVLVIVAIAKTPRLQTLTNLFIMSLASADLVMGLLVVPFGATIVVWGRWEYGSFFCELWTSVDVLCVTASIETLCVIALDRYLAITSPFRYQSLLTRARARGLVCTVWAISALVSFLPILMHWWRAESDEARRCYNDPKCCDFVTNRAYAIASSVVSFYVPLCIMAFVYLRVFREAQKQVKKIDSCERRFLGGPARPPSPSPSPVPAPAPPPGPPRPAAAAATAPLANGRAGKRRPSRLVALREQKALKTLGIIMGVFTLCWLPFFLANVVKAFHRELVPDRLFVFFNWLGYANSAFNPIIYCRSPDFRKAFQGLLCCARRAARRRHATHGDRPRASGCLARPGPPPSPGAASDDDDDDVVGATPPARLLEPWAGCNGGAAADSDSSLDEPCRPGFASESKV
The target of experiment [9] is T3, Alpha-1A adrenergic receptor.
Experiment [10] has as its target Voltage-dependent L-type calcium channel subunit alpha-1C (Rattus norvegicus, UniProt P22002). The class given is functional.
In experiment [11] the target is T6, Gamma-aminobutyric acid receptor subunit alpha-1 (Rattus norvegicus, UniProt P62813). It counts as functional.
T6 sequence (P62813 whole entry): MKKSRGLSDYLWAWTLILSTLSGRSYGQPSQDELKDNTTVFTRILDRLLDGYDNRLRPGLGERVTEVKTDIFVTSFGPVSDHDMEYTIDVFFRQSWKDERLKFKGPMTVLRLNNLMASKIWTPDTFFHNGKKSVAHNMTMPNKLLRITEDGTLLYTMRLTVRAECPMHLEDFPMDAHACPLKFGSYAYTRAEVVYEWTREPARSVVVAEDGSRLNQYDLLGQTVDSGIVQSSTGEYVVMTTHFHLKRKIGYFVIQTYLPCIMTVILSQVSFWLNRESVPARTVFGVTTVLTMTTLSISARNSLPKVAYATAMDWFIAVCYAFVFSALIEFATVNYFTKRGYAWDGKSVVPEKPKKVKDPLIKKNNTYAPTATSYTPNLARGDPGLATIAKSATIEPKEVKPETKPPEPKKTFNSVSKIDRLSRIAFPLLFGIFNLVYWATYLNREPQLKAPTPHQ
The target of experiment [12] is Sodium-dependent noradrenaline transporter (Homo sapiens, UniProt P23975).
Sodium-dependent noradrenaline transporter, sequence (P23975 whole entry): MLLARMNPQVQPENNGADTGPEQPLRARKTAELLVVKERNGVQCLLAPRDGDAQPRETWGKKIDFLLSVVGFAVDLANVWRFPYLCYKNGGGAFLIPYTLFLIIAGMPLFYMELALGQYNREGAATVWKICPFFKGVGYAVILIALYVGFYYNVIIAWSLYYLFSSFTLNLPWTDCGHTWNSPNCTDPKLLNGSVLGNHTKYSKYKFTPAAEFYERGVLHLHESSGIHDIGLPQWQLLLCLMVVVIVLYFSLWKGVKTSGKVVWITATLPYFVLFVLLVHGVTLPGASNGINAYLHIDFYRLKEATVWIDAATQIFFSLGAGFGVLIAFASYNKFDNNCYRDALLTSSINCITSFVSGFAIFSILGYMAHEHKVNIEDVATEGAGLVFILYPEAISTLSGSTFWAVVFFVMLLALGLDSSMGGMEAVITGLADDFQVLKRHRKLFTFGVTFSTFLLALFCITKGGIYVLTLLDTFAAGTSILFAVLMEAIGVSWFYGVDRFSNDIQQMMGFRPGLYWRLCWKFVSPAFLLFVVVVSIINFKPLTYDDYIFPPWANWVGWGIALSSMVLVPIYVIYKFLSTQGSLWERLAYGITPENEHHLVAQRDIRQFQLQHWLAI
Experiment [13] has as its target Neuronal acetylcholine receptor subunit alpha-4 (Homo sapiens, UniProt P43681).
Experiment [14] addresses T7, Mu-type opioid receptor (Homo sapiens, UniProt P35372). The experiment is described as follows: biochemical. The class given is functional.
Experiment [15] has as its target Kappa-type opioid receptor (Homo sapiens, UniProt P41145).
Experiment [16] has as its target T6, Gamma-aminobutyric acid receptor subunit alpha-1.
Experiment [17] addresses Delta-type opioid receptor (Homo sapiens, UniProt P41143).
Experiment [18] addresses Voltage-gated inwardly rectifying potassium channel KCNH2 (Homo sapiens, UniProt Q12809). The class given is functional.
Experiment [19] concerns the target T7, Mu-type opioid receptor.
The target of experiment [20] is Growth hormone secretagogue receptor type 1 (Homo sapiens, UniProt Q92847).
Experiment [21] addresses Epidermal growth factor receptor (Homo sapiens, UniProt P00533). It counts as functional.
Also: assay procedure not described here.

Acetylcholinesterase, sequence (P22303 whole entry): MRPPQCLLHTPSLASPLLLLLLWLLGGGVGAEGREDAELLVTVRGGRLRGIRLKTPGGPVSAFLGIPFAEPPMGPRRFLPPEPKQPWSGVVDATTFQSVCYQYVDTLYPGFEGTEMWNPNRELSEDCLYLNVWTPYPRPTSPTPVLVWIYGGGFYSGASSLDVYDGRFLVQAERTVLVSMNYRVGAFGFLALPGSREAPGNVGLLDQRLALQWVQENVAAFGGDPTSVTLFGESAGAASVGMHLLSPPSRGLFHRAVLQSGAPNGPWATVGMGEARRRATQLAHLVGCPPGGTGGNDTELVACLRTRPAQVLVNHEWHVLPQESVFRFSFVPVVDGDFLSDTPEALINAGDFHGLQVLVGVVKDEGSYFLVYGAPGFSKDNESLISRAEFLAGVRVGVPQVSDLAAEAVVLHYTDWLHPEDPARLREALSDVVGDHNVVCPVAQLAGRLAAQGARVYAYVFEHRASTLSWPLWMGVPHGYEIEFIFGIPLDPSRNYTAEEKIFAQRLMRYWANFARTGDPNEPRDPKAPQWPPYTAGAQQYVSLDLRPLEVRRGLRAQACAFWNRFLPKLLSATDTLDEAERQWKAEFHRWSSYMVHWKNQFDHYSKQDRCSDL
Voltage-dependent L-type calcium channel subunit alpha-1C (Rattus norvegicus, UniProt P22002), sequence (P22002 whole entry): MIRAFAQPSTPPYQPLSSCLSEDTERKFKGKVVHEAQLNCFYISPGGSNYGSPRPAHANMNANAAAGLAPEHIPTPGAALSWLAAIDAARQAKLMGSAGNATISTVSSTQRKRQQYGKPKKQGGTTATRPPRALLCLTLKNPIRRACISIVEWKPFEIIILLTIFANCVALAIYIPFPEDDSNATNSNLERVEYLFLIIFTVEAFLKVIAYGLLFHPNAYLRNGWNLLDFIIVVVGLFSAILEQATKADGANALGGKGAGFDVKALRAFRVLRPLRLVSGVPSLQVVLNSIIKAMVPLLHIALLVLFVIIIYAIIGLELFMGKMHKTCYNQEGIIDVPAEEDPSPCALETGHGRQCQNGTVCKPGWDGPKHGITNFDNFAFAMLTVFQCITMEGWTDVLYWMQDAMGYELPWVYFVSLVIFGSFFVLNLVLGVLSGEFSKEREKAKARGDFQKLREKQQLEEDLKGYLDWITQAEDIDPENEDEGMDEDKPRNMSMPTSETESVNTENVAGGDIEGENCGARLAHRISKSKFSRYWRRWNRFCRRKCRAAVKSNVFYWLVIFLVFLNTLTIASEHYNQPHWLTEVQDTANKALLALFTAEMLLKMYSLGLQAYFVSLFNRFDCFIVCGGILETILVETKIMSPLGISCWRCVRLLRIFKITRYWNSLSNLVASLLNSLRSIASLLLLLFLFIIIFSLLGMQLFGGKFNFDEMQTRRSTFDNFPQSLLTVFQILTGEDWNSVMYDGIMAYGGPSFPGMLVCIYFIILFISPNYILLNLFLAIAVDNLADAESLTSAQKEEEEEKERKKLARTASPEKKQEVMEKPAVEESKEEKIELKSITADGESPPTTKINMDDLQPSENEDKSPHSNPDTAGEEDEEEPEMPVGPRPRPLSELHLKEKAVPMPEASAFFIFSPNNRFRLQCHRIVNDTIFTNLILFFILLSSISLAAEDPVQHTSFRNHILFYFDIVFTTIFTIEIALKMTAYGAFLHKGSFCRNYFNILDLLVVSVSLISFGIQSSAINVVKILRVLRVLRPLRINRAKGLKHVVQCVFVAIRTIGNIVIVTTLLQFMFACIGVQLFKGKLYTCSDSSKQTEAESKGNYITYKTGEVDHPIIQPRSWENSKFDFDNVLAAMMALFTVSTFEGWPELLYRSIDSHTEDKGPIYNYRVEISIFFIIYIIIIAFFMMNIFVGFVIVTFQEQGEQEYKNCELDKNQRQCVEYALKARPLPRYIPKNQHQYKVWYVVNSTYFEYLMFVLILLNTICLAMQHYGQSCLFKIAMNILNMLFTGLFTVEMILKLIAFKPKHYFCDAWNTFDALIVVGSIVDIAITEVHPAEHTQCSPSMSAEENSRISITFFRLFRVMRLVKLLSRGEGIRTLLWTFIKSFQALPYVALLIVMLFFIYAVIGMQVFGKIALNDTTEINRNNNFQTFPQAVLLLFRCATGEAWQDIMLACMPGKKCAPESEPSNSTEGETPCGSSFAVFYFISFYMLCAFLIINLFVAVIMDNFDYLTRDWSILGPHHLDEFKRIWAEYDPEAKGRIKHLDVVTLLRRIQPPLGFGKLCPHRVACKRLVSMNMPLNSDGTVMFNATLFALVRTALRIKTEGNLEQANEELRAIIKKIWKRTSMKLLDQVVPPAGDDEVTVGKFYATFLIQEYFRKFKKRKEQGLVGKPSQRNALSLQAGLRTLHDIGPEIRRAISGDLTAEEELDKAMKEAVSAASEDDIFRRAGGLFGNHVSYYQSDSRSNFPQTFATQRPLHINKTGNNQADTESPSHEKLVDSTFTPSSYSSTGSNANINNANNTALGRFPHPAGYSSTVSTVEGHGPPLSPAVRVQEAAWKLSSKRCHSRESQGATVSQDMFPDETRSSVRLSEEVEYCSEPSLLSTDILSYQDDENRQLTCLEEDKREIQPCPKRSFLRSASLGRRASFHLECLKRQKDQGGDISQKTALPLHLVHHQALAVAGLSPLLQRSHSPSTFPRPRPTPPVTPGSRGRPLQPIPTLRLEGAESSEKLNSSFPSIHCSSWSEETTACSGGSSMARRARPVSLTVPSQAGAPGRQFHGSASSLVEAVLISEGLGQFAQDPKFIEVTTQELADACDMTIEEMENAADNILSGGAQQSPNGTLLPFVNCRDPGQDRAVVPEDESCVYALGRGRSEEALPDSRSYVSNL
T7 sequence (P35372 whole entry): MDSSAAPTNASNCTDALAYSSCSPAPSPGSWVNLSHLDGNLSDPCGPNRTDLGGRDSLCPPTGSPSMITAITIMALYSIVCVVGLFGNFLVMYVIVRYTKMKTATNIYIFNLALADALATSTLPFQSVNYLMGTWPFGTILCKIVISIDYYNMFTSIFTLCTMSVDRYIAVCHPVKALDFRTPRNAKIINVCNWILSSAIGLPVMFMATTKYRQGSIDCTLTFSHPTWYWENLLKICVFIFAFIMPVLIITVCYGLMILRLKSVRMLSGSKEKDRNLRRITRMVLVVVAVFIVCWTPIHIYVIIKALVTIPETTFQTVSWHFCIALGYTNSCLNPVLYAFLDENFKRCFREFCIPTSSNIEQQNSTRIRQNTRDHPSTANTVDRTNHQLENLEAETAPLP

Broadly, the AC50 is the concentration giving half of the maximal activity seen. Consider `c1ccc(C2(c3ccccc3)CC2C2=NCCN2)cc1` (centres undefined) [CIFENLINE], for which the AC50 on Histamine H3 receptor is above 30 µM; in experiment [1], above 50 µM; in experiment [2], above 30 µM; at Acetylcholinesterase, above 30 µM; at Androgen receptor, 22.6 µM; in experiment [3] it was above 30 µM. Besides, the half-maximal activity concentration (AC50) in [4] and in experiment [5] was above 30 µM each time.

`CCCCC[C@H](O)/C=C/[C@@H]1[C@@H](C/C=C\CCCC(=O)O)[C@@H](O)C[C@H]1O` [DINOPROST] registered an AC50 on Thromboxane A2 receptor of 2.76 µM.

For the molecule `CCc1cc(C(N)=S)ccn1` [ETHIONAMIDE], the AC50 in experiment [6], in [7], in [8], in experiment [9] and in experiment [10] was above 10 µM each time.

On to `CC(C)Oc1ccc2c(=O)c(-c3ccccc3)coc2c1` [IPRIFLAVONE], for which the AC50 at Acetylcholinesterase was above 30 µM.

For `CSCC[C@H](NC(=O)[C@H](Cc1c[nH]c2ccccc12)NC(=O)CCNC(=O)OC(C)(C)C)C(=O)N[C@@H](CC(=O)O)C(=O)N[C@@H](Cc1ccccc1)C(N)=O` [PENTAGASTRIN], the concentration at half-maximal activity (AC50) in [11] is above 10 µM; in experiment [6], above 10 µM; in experiment [12], above 10 µM; in experiment [13], above 10 µM; at Mu-type opioid receptor [14], above 30 µM; in experiment [15] it was above 10 µM. The concentration at half-maximal activity (AC50) in experiment [16] is above 10 µM; in experiment [17], above 30 µM; in experiment [18], above 30 µM; at Mu-type opioid receptor [19], above 30 µM; in experiment [10], above 10 µM.

Molecule `N=C(N)c1ccc(OCCCCCOc2ccc(C(=N)N)cc2)cc1` [PENTAMIDINE] had an AC50 on Acetylcholinesterase of 7.28 µM.

For the molecule `O=C(O)Cc1cc(I)c(Oc2ccc(O)c(I)c2)c(I)c1` [TIRATRICOL], the AC50 in experiment [20] and in [21] was above 30 µM throughout.
